For data set [1], the target named is T1, acetylcholinesterase (Homo sapiens, UniProt P22303). The data set can be described thus: Inhibition of acetylcholinesterase, procedure of Ellman (acetylthiocholine substrate, photometric). The note with it: for inhibition at 1 µM: read-out: inhibition of acetylcholinesterase at concentration 10^−6 molar; for inhibition at 0.001 µM: read-out: inhibition of acetylcholinesterase at concentration 10^−9 molar; for cholinesterase inhibition at 10^−5 M: further compounds. It counts as biochemical. The protocol: The anticholinesterase activity of the compounds prepared in the above examples was assayed by an assay for inhibition of acetylcholinesterase following the procedure of G. Ellman, […], 7:88-95 (1961) Acetylthiocholine serves as substrate since it acts like acetylcholine. Acetylcholinesterase cleaves it to thiocholine and acetate which react with dithiobisnitrobenzoate to form a yellow color which is measured photometrically.
T1 sequence (P22303 32-614, species assumed): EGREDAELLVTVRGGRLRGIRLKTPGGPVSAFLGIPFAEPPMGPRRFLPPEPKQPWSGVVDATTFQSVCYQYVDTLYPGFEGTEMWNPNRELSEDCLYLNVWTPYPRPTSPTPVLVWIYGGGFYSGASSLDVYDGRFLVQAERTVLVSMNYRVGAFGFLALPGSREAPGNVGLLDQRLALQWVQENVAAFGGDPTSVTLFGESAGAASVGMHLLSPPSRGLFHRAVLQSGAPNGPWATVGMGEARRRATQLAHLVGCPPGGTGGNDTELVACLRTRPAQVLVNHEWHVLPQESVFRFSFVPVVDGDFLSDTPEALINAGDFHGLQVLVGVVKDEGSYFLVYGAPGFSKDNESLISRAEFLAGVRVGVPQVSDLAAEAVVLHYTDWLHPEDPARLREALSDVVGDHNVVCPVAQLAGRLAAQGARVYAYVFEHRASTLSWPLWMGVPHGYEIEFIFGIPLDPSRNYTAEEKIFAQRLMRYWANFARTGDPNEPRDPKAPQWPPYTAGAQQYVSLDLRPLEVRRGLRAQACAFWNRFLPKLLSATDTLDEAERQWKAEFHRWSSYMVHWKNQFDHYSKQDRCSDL
This assay was carried out at dilution of 10^−5 molar
The compounds were tested in the assay described after Example 5 but at different concentrations. The results obtained were as follows:
Further compounds were prepared by methods analogous to those described above and were tested in a cholinesterase assay as described above.
(In general: Ellman's reagent forms a yellow product with free thiols.)

In data set [2] the test system is nucleas basalis-lesioned animals. Briefly: Nucleus basalis model, passive avoidance in shuttle box. It counts as in vivo, mice. As to conditions: nucleus basalis model, mice, drug given three and ½ hours before learning trials. The text has this:
The following test provides a good animal model for Alzheimer's disease in humans: A selective lesion is placed in a subcortical nucleus (nucleus basalis of Meynert) with a resultant cortical cholinergic deficiency, similar in magnitude to that seen in early to moderate stage Alzheimer's disease. Numerous behavioral deficits, including the inability to learn and retain new information, characterizes this lesion. Drugs that can normalize these abnormalities would have a reasonable expectation of efficacy in Alzheimer's disease. Haroutunian, V, Kanof P, Davis, K L: Pharmacological alleviations of cholinergic-lesion-induced memory defects in rats. Life Sciences, 37:945-952 (1985).
Galanthamine n-butyl carbamate was tested in the nucleus basalis model for galanthamine discussed in the Hartounian et al paper noted above. In the test, mice were given the drug three and ½ hours before two learning trials in a shuttle box. They are placed in the lighted compartment and receive an electric footshock when they cross into the preferred side, the dark. The next day, they are again placed in the lighted compartment and the time to enter the dark is noted. The latency to enter the dark compartment is the basis for this figure. […] Below 50 mg/kg no side effects were noted.

Data set [3] has as its target T1, acetylcholinesterase. Briefly: Acetylcholinesterase Inhibition Assay (other cholinesterase activity tests, may be less reliable). It counts as biochemical. As to conditions: results may be less reliable.
Data set [4] in a line: Solubility noted on isolation of the product. Type of data set: physicochemical.
The next data set relates to cholinesterase. As to conditions: Irwin and Smith, Arch. Int. Pharmacodyn. 127:314-330; cited from earlier work.
Data set [5] concerns scopolamine induced memory deficit. The data set can be described thus: Scopolamine dementia dark avoidance test (passive avoidance). It counts as in vivo, male CFW mice. The protocol: Furnished data on the effects of these compound on cholinesterase activity were used to determine doses for testing. […] The two other compounds were tested at 1,3 and 10 mg/kg sc and did antagonize the scopolamine induced deficit.
Training and testing of passive avoidance were conducted in a two-compartment (light/dark) test cage. On the training day, mice were individually placed in the light half of the cage and after entering the dark compartment, were administered a 3 sec 0.4 mA footshock. They were then removed from the test chamber and returned to their home cages. Twenty-four hours later, the animals were again placed in the lighted half of the test cage and the latency to enter the dark compartment was measured.
All animals in each group of 15 naive male CFW mice were injected twice subcutaneously. Thirty minutes prior to training, animals were administered 3 mg/kg scopolamine HBr or its 0.9% NaCl vehicle. Five minutes prior to training, independent groups were administered one of three doses of the test compounds or the distilled water vehicle. One group in each experiment received vehicle twice, another group received scopolamine and the dH2O vehicle; the remaining groups received scopolamine and a test compound.
A cutoff value (CO), defined as the second-longest latency in the scopolamine/vehicle treated group, was used to determine whether a compound was active. If 20% or more of the animals in a treatment group had latencies greater than the CO value, the compound was considered active at that dose.
The three compounds were tested in two separate experiments; the results are presented below in Tables 1 and 2. Doses considered active are marked with an asterisk (*).

Setting [6] is: 10^−5 molar, read-out: inhibition of acetylcholinesterase at concentration 10^−5.
The mark [7] stands for this setting: Table 2, scopolamine + 1 mg/kg sc, cut-off 41 seconds.
Setting [8] is: Table 2, scopolamine + 3 mg/kg sc, cut-off 41 seconds.
Setting [9] is: Table 2, scopolamine + 10 mg/kg sc, cut-off 41 seconds.
[10] abbreviates: dilution of 10^−5 molar, read-out: PERCENT INHIBITION OF ACETYLCHOLINESTERASE
[11] abbreviates: Table 1, scopolamine + 0.3 mg/kg sc, cut-off 38 seconds.
The mark [12] stands for this setting: Table 1, scopolamine + 2.0 mg/kg sc, cut-off 38 seconds.
[13] abbreviates: Table 1, scopolamine + 3.0 mg/kg sc, cut-off 38 seconds.

Where two headings read alike, the source gives them in different places. Some results are limits rather than exact numbers.

Regarding `COc1ccc2c3c1OC1C[C@H](Cl)C=C[C@@]31CCN(C)C2` (stereo partly drawn) [Product of Example 10], the inhibition at 10 µM at acetylcholinesterase [1] (setting [6]) turned out to be 73%.

Regarding `COc1ccc2c3c1O[C@H]1CC(O)C=C[C@@]31CCN(C)C2` (stereo partly drawn) [Galanthamine, reference compound], the “best dose in passive avoidance test” value in data set [2] is 3 mg/kg.

For orientation: % Inhibition means the drop in the measured response relative to a control, in per cent. A higher % Inhibition goes with a strong effect. Consider `COc1ccc2c3c1O[C@H]1C[C@@H](OC(=O)CC(C)C)C=C[C@@]31CCN(C)C2` [iso-valeroyl ester], for which, on acetylcholinesterase [3], the “% Inhibition at 10^−6” value is on record as 39%, the “% Inhibition at 10^−7” value is given as 13% and the “% Inhibition at −10^−5” value was found to be 33%.

As for `COc1cc2c3c(c1)OC1C[C@@H](O)C=C[C@@]31CC[N+](C)(Cc1ccccc1)C2.[Br-]` (stereo partly drawn) [galanthamine benzyl bromide], on acetylcholinesterase [1], the inhibition at 1 µM was 77% and the inhibition at 0.001 µM worked out at 40%. In addition, the solubility in alcohols entry in data set [4] is recorded as “soluble”.

On to lycoramine azide, for which the “cholinesterase inhibition at 10^−5 M” value on acetylcholinesterase [1] is listed as 25.

Turning to `COc1ccc2c3c1O[C@H]1C[C@@H](O[Si](C(C)C)(C(C)C)C(C)C)C=C[C@@]31CCN(C)C2` [Product of Example 7], the “inhibition of acetylcholinesterase at concentration 10^−5” value (“inhibition … at concentration 10^−5” below) against acetylcholinesterase [1] (10^−5 molar) came out at 17. Further, the solubility in alcohols result in data set [4] is listed as “soluble”.

Turning to `CC(C)OC(N)=O` [isopropyl carbamate], at acetylcholinesterase [3], the “% Inhibition at 10^−6” value is on record as 0%, the “% Inhibition at 10^−7” value is reported as 0% and the “% Inhibition at −10^−5” value stood at 21%.

For 4,5-dehydrogalanthamine, the “cholinesterase inhibition at 10^−5 M” value at acetylcholinesterase [1] is listed as 30.

Regarding `COc1ccc2c3c1OC1CC(OC(=O)Nc4cccc5ccccc45)C=CC31CCN(C)C2` (stereo not drawn) [Product of Example 4], the “PERCENT INHIBITION OF ACETYLCHOLINESTERASE” value at acetylcholinesterase [1] (dilution of 10^−5 molar) turned out to be 60%.

As to `CCCCCC(=O)O[C@H]1C=C[C@@]23CCN(C)Cc4ccc(OC)c(c42)O[C@H]3C1` [hexanoic ester], at acetylcholinesterase [3], the “% Inhibition at 10^−6” value is 30%, the “% Inhibition at 10^−7” value was determined as 36% and the “% Inhibition at −10^−5” value is on record as 55%.

In the case of deoxydemethyl lycoramine methiodide, the cholinesterase activity entry with cholinesterase was “good activity”.

`CCNC(=O)O[C@H]1C=C[C@@]23CCN(C)Cc4ccc(OC)c(c42)O[C@H]3C1` [ethyl carbaxnate]: at acetylcholinesterase [3], the “% Inhibition at 10^−6” value came out at 70%, the “% Inhibition at 10^−7” value was found to be 9% and the “% Inhibition at −10^−5” value amounted to 59%.

Take `COc1ccc2c3c1O[C@H]1C[C@@H](OC(C)=O)C=C[C@@]31CCN(C)C2` [Product of Example 2, Galanthamine acetate]: the “# > CO/n” value is 1/15 in data set [5] (setting [7]), 4/15 in data set [5] (setting [8]) and 3/15 in data set [5] (setting [9]). The “% > CO” value in data set [5] (setting [7]) is listed as 7%; in data set [5] (Table 2, scopolamine + 3 mg/kg sc, cut-off 41 seconds, * = dose considered active), 27* %; in data set [5] (Table 2, scopolamine + 10 mg/kg sc, cut-off 41 seconds, * = dose considered active), 20* %. For the same compound, the results for the “Mean Latency” value in data set [5] (setting [7]), in data set [5] (setting [8]) and in data set [5] (setting [9]) were 21 s, 38 s and 31 s, respectively. Further, the “antagonism of scopolamine induced memory deficit” value in data set [5] (doses of 3 and 10 mg/kg sc) was “active”. In addition, the inhibition at 10 µM at acetylcholinesterase [1] (setting [10]) is 37%.

Consider `COc1ccc2c3c1OC1C(O)CC=C4C(C2)[N+](C)(C)CCC431.[I-]` (stereo not drawn) [neopin methiodide], for which the cholinesterase activity result with cholinesterase is given as “ineffective”.

Consider `COc1ccc2c3c1O[C@H]1C[C@@H](O)CC[C@@]31CCN(C)C2` [Product of Example 5], for which, on acetylcholinesterase [1] (setting [10]), the inhibition at 10 µM came out at 30%.

Consider `COc1ccc2c3c1OC1CC(O)CCC31CCNC2` (stereo not drawn) [N-demethyl lycoramine], for which the “inhibition … at concentration 10^−5” value at acetylcholinesterase [1] (10^−5 molar) is “inactive”.

Consider `COc1cc2c3c(c1)OC1C/C(=N/NC(N)=O)C=C[C@@]31CCN(C)C2` (stereo partly drawn) [narwedine semicarbazone], for which the “inhibition … at concentration 10^−5” value against acetylcholinesterase [1] (10^−5 molar) was “inactive”. The solubility in alcohols result in data set [4] was “soluble”.

In the case of `COc1ccc2c3c1OC1CC(I)CCC31CCN(C)C2` (stereo not drawn) [2-iodo-2-dehydroxy lycoramine], the “cholinesterase inhibition at 10^−5 M” value at acetylcholinesterase [1] is listed as 15.

With `COc1ccc2c3c1O[C@H]1C[C@@H](OC(=O)C4CC4)C=C[C@@]31CCN(C)C2` [cyclopropyl carbinol ester], at acetylcholinesterase [3], the “% Inhibition at 10^−6” value came to 13%, the “% Inhibition at 10^−7” value was 0% and the “% Inhibition at −10^−5” value is on record as 40%.

For the compound `CCCOC(N)=O` [n-propyl carbamate], at acetylcholinesterase [3], the “% Inhibition at 10^−6” value turned out to be 50%, the “% Inhibition at 10^−7” value amounted to 21% and the “% Inhibition at −10^−5” value came to 34%.

As for `COc1ccc2c3c1OC1CCCC[C@@]31CCN(C)C2` (stereo partly drawn) [deoxylycoramine], the cholinesterase activity entry with cholinesterase is given as “some activity”.

With `COc1ccc2c3c1OC1CC(O)C=C[C@@]31CCNC2` (single isomer, unassigned; (-)) [N-demethyl galanthamine, (−) N-demethylgalanthamine], in data set [5] (setting [11]), the “# > CO/n” value is listed as 0/15, the “% > CO” value worked out at 0% and the “Mean Latency” value came out at 21 s. For the same compound, in data set [5] (setting [12]), the “# > CO/n” value is on record as 2/15, the “% > CO” value is on record as 13% and the “Mean Latency” value is 33 s. In addition, in data set [5] (setting [13]), the “# > CO/n” value is listed as 2/15, the “% > CO” value came to 13% and the “Mean Latency” value came to 26 s. For the same compound, the “antagonism of scopolamine induced memory deficit” value in data set [5] (doses of 0.3, 1.0 and 3.0 mg/kg) was “inactive”.

Turning to `CN1CC[C@@]23C=C[C@H](O)CC2Oc2c(O)ccc(c23)C1` (stereo partly drawn) [O-demethyl-galanthamine, O-demethyl galanthamine], the inhibition at 10 µM on acetylcholinesterase [1] (setting [6]) is not below 100%. On acetylcholinesterase [1], the inhibition at 1 µM was 89% and the inhibition at 0.001 µM stood at 55%.

With `COc1ccc2c3c1O[C@H]1C[C@@H](OC(=O)Nc4ccccc4)C=C[C@@]31CCN(C)C2` [Product of Example 3], at acetylcholinesterase [1] (setting [10]), the inhibition at 10 µM was 37%.

With `CCCCC(=O)O[C@H]1C=C[C@@]23CCN(C)Cc4ccc(OC)c(c42)O[C@H]3C1` [valeric ester], on acetylcholinesterase [3], the “% Inhibition at 10^−6” value is 35%, the “% Inhibition at 10^−7” value was 37% and the “% Inhibition at −10^−5” value came to 41%.

Regarding `COc1ccc2c3c1OC1CC(N)CCC31CCN(C)C2` (stereo not drawn) [2-amino-2-dehydroxy lycoramine], on acetylcholinesterase [1], the “cholinesterase inhibition at 10^−5 M” value was found to be 17.

Consider `COc1ccc2c3c1O[C@H]1C[C@@H](OC(=O)c4ccccc4F)C=C[C@@]31CCN(C)C2` [o-F-benzoic ester], for which, at acetylcholinesterase [3], the “% Inhibition at 10^−6” value was 39%, the “% Inhibition at 10^−7” value is 37% and the “% Inhibition at −10^−5” value was found to be 27%.

With `COc1ccc2c3c1O[C@H]1C[C@@H](O)C=CC31CC[N+](C)(C)C2.[I-]` (stereo partly drawn) [galanthamine methiodide], the “solubility in cold water” value in data set [4] (cold water) was “slightly soluble”. In addition, in data set [4] (hot water), the “solubility in hot water” value is listed as “soluble”.

For the compound `CCCCCCCCOC(N)=O` [octyl carbamate], on acetylcholinesterase [3], the “% Inhibition at 10^−6” value was found to be 35%, the “% Inhibition at 10^−7” value is reported as 16% and the “% Inhibition at −10^−5” value is reported as 55%.

Consider `COc1ccc2c3c1O[C@H]1C[C@H](OC(C)=O)C=C[C@@]31CCN(C)C2` [epigalanthamine acetate (from Example 8), epigalanthamine acetate], for which the inhibition at 10 µM on acetylcholinesterase [1] (setting [6]) turned out to be 21%. Besides, the solubility in alcohols entry in data set [4] is “soluble”.

Values taken from US20040023984A1, “Compounds for the treatment of alzheimer's disease” (priority 1987, published 2004).
